Assay results from ChEMBL document CHEMBL5380835, “Discovery of Clinically Used Octenidine as NRAS Repressor That Effectively Inhibits NRAS-Mutant Melanoma” (J Med Chem, 2023).
Each block holds one compound with its values, some of them ahead of it. The source made the active and inactive calls. The calls are words filed in the database; no cut-off is given here.

How the values were obtained:
[1] = Binding affinity to 5'-FAM-labeled to NRAS RNA G-quadruplex 5'-r(UGUGGGAGGGGCGGGUCUGGG)-3' (unknown origin) assessed as dissociation constant by fluorescence quenching assay
SK-MEL-2 [2] = experiment: Cytotoxicity against human SK-MEL-2 cells expressing NRAS mutant assessed as cell growth inhibition incubated for 48 hrs by MTT assay; format: functional, cell-based; conditions: SK-MEL-2, 48 h
HEK293 = experiment: Binding affinity to NRAS RNA G-quadruplex 5'-r(UGUGGGAGGGGCGGGUCUGGG)-3' (unknown origin) transfected in HEK293 cells assessed as decrease in NRAS […] upto 1.5 uM incubated for 24 hrs by Dual luciferase reporter assay; format: functional, cell-based
SK-MEL-2 [3] = experiment: Downregulation of phosphorylated ERK in human SK-MEL-2 cells expressing NRAS mutant at 1.5 uM by Western blot analysis; format: functional, cell-based; conditions: time <= 48.0 hrs, TDE = time-dependent effect
[4] = Disruption of DHX36/NRAS RNA G-quadruplex 5'-r(UGUGGGAGGGGCGGGUCUGGG)-3' (unknown origin) using RNA substrate incubated for 1 hr by ELISA method
[5] = Binding affinity to NRAS RNA G-quadruplex 5'-r(UGUGGGAGGGGCGGGUCUGGG)-3' (unknown origin) assessed as decrease in TO fluorescence at 0.25 uM by TO displacement assay
SK-MEL-2 [6] = experiment: Suppression of NRAS protein translation in human SK-MEL-2 cells upto 1.5 uM incubated for 48 hrs by Western blot analysis; format: functional, cell-based
DNA = experiment: Binding affinity to total DNA (unknown origin) by TO displacement assay; format: nucleic-acid assay
SK-MEL-2 [7] = experiment: Cytotoxicity against human SK-MEL-2 cells assessed as inhibition of cell viability treated for 72 hrs measured after 24 hrs; format: functional, cell-based
SK-MEL-2 [8] = experiment: Cytotoxicity against human SK-MEL-2 cells assessed as inhibition of cell viability treated for 48 hrs measured after 24 hrs; format: functional, cell-based
SK-MEL-2 [9] = experiment: Antitumor activity against human SK-MEL-2 cells xenografted in BALB/c nude mouse assessed as reduction in tumor weight at 1 mg/kg/day, ip administered for 30 days by electronic caliper method; format: functional, organism-based; conditions: time 30.0 day
[10] = Toxicity in BALB/c mouse xenografted with human SK-MEL-2 cells assessed as change in body weight at 1 mg/kg/day, ip administered for 30 days; format: organism-based; conditions: in vivo, 720 h, time 30 day
SK-MEL-2 [11] = experiment: Downregulation of phosphorylated AKT in human SK-MEL-2 cells expressing NRAS mutant incubated for 48 hrs by Western blot analysis; format: functional, cell-based; conditions: dose <= 1.5 µM
RNA = experiment: Binding affinity to total RNA (unknown origin) by TO displacement assay; format: nucleic-acid assay
SK-MEL-2 [12] = experiment: Induction of cell cycle arrest in human SK-MEL-2 cells assessed as accumulation at S phase at 1.5 uM measured after 24 hrs by PI staining based analysis; format: functional
SK-MEL-2 [13] = experiment: Cytotoxicity against human SK-MEL-2 cells assessed as cell growth inhibition incubated for 24 hrs by MTT assay; format: functional, cell-based; conditions: SK-MEL-2, 24 h
SK-MEL-2 [14] = experiment: Downregulation of phosphorylated mTOR in human SK-MEL-2 cells expressing NRAS mutant incubated for 48 hrs by Western blot analysis; format: functional, cell-based; conditions: dose <= 1.5 µM
SK-MEL-2 [15] = experiment: Cytotoxicity against human SK-MEL-2 cells expressing Tet-on NRAS Q61R assessed as cell growth inhibition in presence of doxycycline; format: functional, cell-based
SK-MEL-2 [16] = experiment: Antitumor activity against human SK-MEL-2 cells xenografted in BALB/c nude mouse assessed as T/C ratio at 1 mg/kg/day, ip administered for 30 days relative to control; format: functional; conditions: time 30 day
SK-MEL-2 [17] = experiment: Downregulation of phosphorylated MEK in human SK-MEL-2 cells expressing NRAS mutant incubated for 48 hrs by Western blot analysis; format: functional, cell-based; conditions: dose <= 1.5 µM
[18] = Binding affinity to NRAS RNA G-quadruplex 5'-r(UGUGGGAGGGGCGGGUCUGGG)-3' (unknown origin) by TO displacement assay
SK-MEL-2 [19] = experiment: Cytotoxicity against human SK-MEL-2 cells assessed as inhibition of cell viability treated for 72 hrs measured after 72 hrs; format: functional, cell-based; conditions: SK-MEL-2, 72 h
SK-MEL-2 [20] = experiment: Antiproliferative activity against human SK-MEL-2 cells assessed as cell growth inhibition incubated for 48 hrs by EdU assay; format: functional, cell-based; conditions: SK-MEL-2, 48 h
SK-MEL-2 [21] = experiment: Cytotoxicity against human SK-MEL-2 cells overexpressing Tet-on NRAS Q61R assessed as cell growth inhibition; format: functional, cell-based
SK-MEL-2 [22] = experiment: Downregulation of phosphorylated ERK in human SK-MEL-2 cells expressing NRAS mutant incubated for 48 hrs by Western blot analysis; format: functional, cell-based; conditions: dose <= 1.5 µM
SK-MEL-2 [23] = experiment: Downregulation of NRAS protein translation in human SK-MEL-2 cells incubated for 24 hrs by Western blot analysis; format: functional, cell-based; conditions: dose <= 1.5 µM
[24] = Stabilization of NRAS RNA G-quadruplex 5'-r(UGUGGGAGGGGCGGGUCUGGG)-3' (unknown origin) at 10 uM
[25] = Binding affinity to 3'-FAM-labeled to NRAS RNA G-quadruplex 5'-r(UGUGGGAGGGGCGGGUCUGGG)-3' (unknown origin) assessed as dissociation constant by fluorescence quenching assay
SK-MEL-2 [26] = experiment: Cytotoxicity against human SK-MEL-2 cells assessed as inhibition of cell viability treated for 48 hrs measured after 48 hrs; format: functional, cell-based; conditions: SK-MEL-2, 48 h
SK-MEL-2 [27] = experiment: Induction of autophagy in human SK-MEL-2 cells assessed as […] at 1.5 uM measured upto 48 hrs by Western bot analysis; format: functional, cell-based
RNA [UNDEFINED MUTATION] = experiment: Binding affinity to NRAS RNA mutant G-quadruplex 5'-r(UGUAAGAGAAGCGAGUCUGAG)-3' (unknown origin) by TO displacement assay; format: nucleic-acid assay
SK-MEL-2 [28] = experiment: Cytotoxicity against human SK-MEL-2 cells expressing Tet-on NRAS Q61R assessed as cell growth inhibition; format: functional, cell-based
SK-MEL-2 [29] = experiment: Cytotoxicity against human SK-MEL-2 cells expressing NRAS mutant assessed as cell growth inhibition upto 50 uM measured for 12 to 96 hrs by MTT assay; format: functional, cell-based; conditions: time 12-96 hrs
SK-MEL-2 [30] = experiment: Downregulation of phosphorylated mTOR in human SK-MEL-2 cells expressing NRAS mutant at 1.5 uM by Western blot analysis; format: functional, cell-based; conditions: time <= 48.0 hrs, TDE = time-dependent effect
SK-MEL-2 [31] = experiment: Disruption of DHX36/NRAS RNA G-quadruplex 5'-r(UGUGGGAGGGGCGGGUCUGGG)-3' in human SK-MEL-2 cells at 1.5 uM incubated for 24 hrs by RNA Immunoprecipitation assay; format: cell-based
SK-MEL-2 [32] = experiment: Cytotoxicity against human SK-MEL-2 cells upto 10 uM in presence of CQ; format: functional, cell-based
SK-MEL-2 [33] = experiment: Antiproliferative activity against human SK-MEL-2 cells assessed as cell growth inhibition incubated for 12 hrs by EdU assay; format: functional, cell-based; conditions: SK-MEL-2, 12 h
[34] = Toxicity in BALB/c mouse xenografted with human SK-MEL-2 cells assessed as change in viscera pattern at 1 mg/kg/day, ip administered for 30 days by HE staining based analysis; format: organism-based; conditions: in vivo, 720 h, time 30 day
SK-MEL-2 [35] = experiment: Downregulation of NRAS expression in human SK-MEL-2 cells xenografted in BALB/c nude mouse at 1 mg/kg/day, ip administered for 30 days by IHC analysis; format: functional, organism-based; conditions: time 30.0 day
SK-MEL-2 [36] = experiment: Antitumor activity against human SK-MEL-2 cells xenografted in BALB/c nude mouse assessed as tumor growth inhibition at 1 mg/kg/day, ip by electronic caliper method; format: functional, organism-based; conditions: time 30.0 day, TDE = time-dependent effect
SK-MEL-2 [37] = experiment: Antitumor activity against human SK-MEL-2 cells xenografted in BALB/c nude mouse assessed as tumor growth inhibition at 1 mg/kg/day, ip administered for 30 days relative to control; format: functional; conditions: SK-MEL-2, 720 h, time 30 day, read-out: TGI
SK-MEL-2 [38] = experiment: Antiproliferative activity against human SK-MEL-2 cells assessed as inhibition of colony formation at 1.5 uM measured after 10 days by crystal violet staining based assay relative to control; format: functional; conditions: SK-MEL-2, 240 h, time 10 day
SK-MEL-2 [39] = experiment: Antiproliferative activity against human SK-MEL-2 cells assessed as inhibition of cell survival upto 50 uM incubated for 24 to 96 hrs by MTT assay; format: functional, cell-based; conditions: time 24-96 hrs
SK-MEL-2 [40] = experiment: Cytotoxicity against human SK-MEL-2 cells upto 10 uM in presence of 3mA; format: functional, cell-based
SK-MEL-2 [41] = experiment: Cytotoxicity against human SK-MEL-2 cells overexpressing Tet-on NRAS Q61R assessed as cell growth inhibition in presence of doxycycline; format: functional, cell-based
SK-MEL-2 [42] = experiment: Induction of apoptosis in human SK-MEL-2 cells assessed as late apoptotic cells at 1.5 uM measured after 24 hrs by PI/FITC Annexin V staining based flow cytometry; format: functional, cell-based
SK-MEL-2 [43] = experiment: Antiproliferative activity against human SK-MEL-2 cells assessed as cell growth inhibition incubated for 24 hrs by EdU assay; format: functional, cell-based; conditions: SK-MEL-2, 24 h
SK-MEL-2 [44] = experiment: Downregulation of KRAS protein level in human SK-MEL-2 cells upto 1.5 uM incubated for 48 hrs by Western blot analysis; format: functional, cell-based
SK-MEL-2 [45] = experiment: Induction of cell cycle arrest in human SK-MEL-2 cells assessed as accumulation at G2/M phase at 1.5 uM measured after 48 hrs by PI staining based analysis; format: functional

Kd [1]: 1.85 µM
SMILES: CCCCCNc1cc[n+](CCCCCCCCCC[n+]2ccc(NCCCCC)cc2)cc1
IC50 (SK-MEL-2 [2]): 3 µM

Kd [1]: 0.74 µM
SMILES: CCCCCCNc1cc[n+](CCCCCC[n+]2ccc(NCCCCCC)cc2)cc1
IC50 (SK-MEL-2 [2]): 8.61 µM

Kd [1]: 1.34 µM
SMILES: CCCCCCCCNc1cc[n+](CCCC[n+]2ccc(NCCCCCCCC)cc2)cc1
IC50 (SK-MEL-2 [2]): 5.61 µM

IC50 [4]: 2.4 µM | Activity [5]: Active | Activity (DNA): inactive | Kd [1]: 0.49 µM | Activity (RNA): Active | EC50 [18]: 1.6 µM | IC50 (SK-MEL-2 [20]): 0.49 µM | Activity [24]: inactive | Kd [25]: 0.23 µM | Activity (RNA [UNDEFINED MUTATION]): inactive | IC50 (SK-MEL-2 [33]): 2.05 µM | IC50 (SK-MEL-2 [43]): 1.08 µM
SMILES: CCCCCCCCN=c1ccn(CCCCCCCCCCn2ccc(=NCCCCCCCC)cc2)cc1.Cl.Cl [OCTENIDINE HYDROCHLORIDE]
Activity (HEK293): Active | Activity (SK-MEL-2 [3]): Tde | Activity (SK-MEL-2 [6]): Active | IC50 (SK-MEL-2 [7]): 0.48 µM | IC50 (SK-MEL-2 [8]): 2.11 µM | Activity (SK-MEL-2 [9]): Active | Activity [10]: Non-Toxic | Activity (SK-MEL-2 [11]): Dose-Dependent Effect | Activity (SK-MEL-2 [12]): Active | IC50 (SK-MEL-2 [13]): 2.34 µM | Activity (SK-MEL-2 [14]): Dose-Dependent Effect | IC50 (SK-MEL-2 [15]): 12.4 µM | T/C (SK-MEL-2 [16]): 38.5% | Activity (SK-MEL-2 [17]): Dose-Dependent Effect | IC50 (SK-MEL-2 [19]): 0.46 µM | Activity (SK-MEL-2 [21]): Active | Activity (SK-MEL-2 [22]): Dose-Dependent Effect | Activity (SK-MEL-2 [23]): Dose-Dependent Effect | IC50 (SK-MEL-2 [26]): 2.1 µM | Activity (SK-MEL-2 [27]): Active | IC50 (SK-MEL-2 [28]): 6.3 µM | inhibition (SK-MEL-2 [29]): Active | Activity (SK-MEL-2 [30]): Tde | Activity (SK-MEL-2 [31]): Active | Activity (SK-MEL-2 [32]): Active | Activity [34]: Non-Toxic | Activity (SK-MEL-2 [35]): Active | Activity (SK-MEL-2 [36]): Tde | inhibition in vivo at 1 mg/kg/day (SK-MEL-2 [37]): 52.4% | inhibition at 1.5 µM (SK-MEL-2 [38]): 100% | inhibition (SK-MEL-2 [39]): Active | Activity (SK-MEL-2 [40]): Active | Activity (SK-MEL-2 [41]): Active | Activity (SK-MEL-2 [42]): Active | IC50 (SK-MEL-2 [2]): 1.34 µM | Activity (SK-MEL-2 [44]): inactive | Activity (SK-MEL-2 [45]): Active
